The text below walks through data of paper PMC11785708, “Design and synthesis of new quinazolinone derivatives: investigation of antimicrobial and biofilm inhibition effects” (Molecular Diversity, 2024).

As a reminder, the zone of inhibition is the extent of the growth-free halo in a diffusion test. For orientation: MIC means the lowest concentration found to suppress growth. Read a low MIC as greater potency. As a reminder, the viability is the share of living cells, or the viability signal relative to a control. A low value points to a greater loss of cells. Broadly, the IC50 is the concentration needed to halve the response being measured. A word on the melting point: it is the temperature of the solid-liquid transition.

Data set [1] concerns S. aureus ATCC 6538. In words: Agar well diffusion, S. aureus. The settings on record: Staphylococcus aureus, ATCC6538; 100 μl of test compound 20 mg/ml in DMF; ciprofloxacin and fluconazole 30 μg/ml; 24 h; mean ± SD; read-out: diameters of inhibition zone, S. aureus ATCC 6538. The class given is cell-based. As for the experimental part: (§1) The antimicrobial activity was tested against Gram positive bacteria: Bacillus cereus (B. cereus ATCC 6629), Bacillus subtilis (B. subtilis ATCC 6633), Staphylococcus aureus (S. aureus ATCC 6538), Gram negative bacteria: Klebsiella pneumoniae (K. pneumoniae ATCC 13883), Pseudomonas aeruginosa (P. aeruginosa ATCC 27953) and Candida albicans (C. albicans ATCC 10231). Glycerol stocks were thawed upon need and propagated into nutrient broth at 37 °C. The antibacterial activity of the compounds 9-32 was carried out in vitro using the agar well diffusion method, originally reported by […] and Bauer and coworkers and described by the National Committee for Clinical Laboratory Standards (NCCLS). Bacterial strains, adjusted at […] (equivalent to 0.5 McFarland), were used to inoculate nutrient agar plates. 9-mm diameter wells were punched into the solidified nutrient agar plates using sterile cork borer and 100 μl samples of the test compounds, dissolved in dimethyl formamide (DMF) at 20 mg/ml concentrations, were added and allowed to diffuse at 4 °C for 2 h. Subsequently, the plates were incubated overnight in an upright position at 37 °C. DMF was used as a negative control while ciprofloxacin and fluconazole (30 μg/ml) served as positive controls. After 24 h incubation, the diameters of the growth inhibition zones were recorded in mm. Data was expressed as mean ± standard deviation of three replicates.
For orientation: A growth-free zone around the sample is the usual read-out of agar diffusion tests.

The subject of data set [2] is B. subtilis ATCC 6633. In words: Agar well diffusion, B. subtilis. The format is cell-based. The note with it: Bacillus subtilis, ATCC6633; 100 μl of test compound 20 mg/ml in DMF; ciprofloxacin and fluconazole 30 μg/ml; 24 h; mean ± SD; read-out: diameters of inhibition zone, B. subtilis ATCC 6633. On the procedure: as §1
Data set [3] concerns B. cereus ATCC 6629. In words: Agar well diffusion, B. cereus. The settings on record: Bacillus cereus, ATCC6629; 100 μl of test compound 20 mg/ml in DMF; ciprofloxacin and fluconazole 30 μg/ml; 24 h; mean ± SD; read-out: diameters of inhibition zone, B. cereus ATCC 6629. The format is cell-based. On the procedure:
as §1

Data set [4] has as its system K. pneumoniae ATCC 13883. In words: Agar well diffusion, K. pneumoniae. The note with it: Klebsiella pneumoniae, ATCC13883; 100 μl of test compound 20 mg/ml in DMF; ciprofloxacin and fluconazole 30 μg/ml; 24 h; mean ± SD; read-out: diameters of inhibition zone, K. pneumoniae ATCC 13883. The format is cell-based. On the procedure: as §1
Data set [5] relates to P. aeruginosa ATCC 27953. In words: Agar well diffusion, P. aeruginosa. The class given is cell-based. The settings on record: Pseudomonas aeruginosa, ATCC27953; 100 μl of test compound 20 mg/ml in DMF; ciprofloxacin and fluconazole 30 μg/ml; 24 h; mean ± SD; read-out: diameters of inhibition zone, P. aeruginosa ATCC 27953. As for the experimental part: as §1
Data set [6] deals with S. aureus ATCC 6538. In words: MIC determination, S. aureus. The class given is cell-based, Staphylococcus aureus. The settings on record: Staphylococcus aureus, ATCC6538; serial dilutions, triplicate. As for the experimental part: (§2) Serial dilutions of the test compounds were tested to determine their MIC against the most susceptible organisms. The MIC was expressed as the lowest concentration which inhibited the visible growth of the corresponding microorganism. All assays were performed in triplicate.

The test system of data set [7] is B. subtilis ATCC 6633. Put plainly: MIC determination, B. subtilis. The class given is cell-based, Bacillus subtilis. The note with it: serial dilutions, triplicate. As for the experimental part:
as §2

The subject of data set [8] is B. cereus ATCC 6629. Put plainly: MIC determination, B. cereus. The class given is cell-based, Bacillus cereus. The note with it: serial dilutions, triplicate. As for the experimental part:
as §2

The test system of data set [9] is K. pneumoniae ATCC 13883. Put plainly: MIC determination, K. pneumoniae. The format is cell-based, Klebsiella pneumoniae. The settings on record: serial dilutions, triplicate. As for the experimental part:
as §2

Data set [10] deals with P. aeruginosa ATCC 27953. Put plainly: MIC determination, P. aeruginosa. The format is cell-based, Pseudomonas aeruginosa. The settings on record: serial dilutions, triplicate. On the procedure: as §2
A further data set can be described thus: Cell viability MTT assay. The class given is cell-based. The note with it: human, BJ1 cells (normal skin fibroblasts). As for the experimental part:
Cell viability testing at 5 mg/ml was carried out by colorimetric MTT assay on human normal cell line BJ1 (skin fibroblasts) to investigate the toxicity of the most broad spectrum derivatives 9, 15, 16, 18, 19, 20 and 29 (Table 3). The viability of the cells treated with the aforementioned derivatives was more than 87% at 5 mg/ml concentration. This gives indication that the compounds are tolerated and nontoxic for human cells, as the cytotoxic dose was higher than the therapeutic dose on most of microorganisms. It is worth mentioning that the safe limit of the percent of dead cells is not an absolute value and could be more than 10% as reported in previous studies.
The most broad spectrum compounds were evaluated for their cytotoxic activity against BJ1 cell line using colorimetric MTT [3-(4,5-dimethylthiazol-2-yl)-2,5-diphenyltetrazolium bromide] assay.

Data set [11] has as its system P. aeruginosa ATCC 27953. In words: Biofilm inhibition assay (crystal violet). The format is cell-based. The settings on record: Pseudomonas aeruginosa, ATCC27953, P. aeruginosa ATCC 27953, 24 h. As for the experimental part: Compounds with potential activity against P. aeruginosa ATCC 27953 were tested for the respective biofilm inhibition. The assay was carried out in microtiter plate setup using crystal violet (CV) staining of adherent cells, as modified from.
After 24 h cultivation, the supernatant and planktonic cells were discarded, wells were washed with phosphate buffered saline (PBS) and biofilms were stained with 0.1% CV. CV was subsequently washed then, solubilized with 33% (v/v) glacial acetic acid. The absorbance was measured at 540 nm using SPECTROstar® Nano microplate reader (BMG LABTECH GmbH, Germany). The experiments were performed in triplicate and independently repeated three times. GraphPad Prism 6.0 software was used to estimate the IC50 values, which correspond to […].

The subject of data set [12] is P. aeruginosa ATCC 27953. In words: Bacterial cell surface hydrophobicity (CSH) assay (MATH / BATH). The class given is cell-based, Pseudomonas aeruginosa. The settings on record: increasing concentrations, toluene partition (Fig. 6). On the procedure:
The effect of the test compounds 19 and 20 on cell surface hydrophobicity was investigated via the microbial or bacterial adherence to hydrocarbons (MATH / BATH) assay. Exponentially growing culture of P. aeruginosa ATCC 27953 incubated with or without test compounds were centrifuged, the pellets were re-suspended and OD600 was measured using UV/Vis spectrophotometer (Jasco V-630, Tokyo, Japan) to give Ao. The re-suspended cells were vigorously mixed with toluene followed by measuring the OD600 of the aqueous phase to give At. The hydrophobicity index was calculated as follows: Hydrophobicityindex=Ao-At/Ao×100

Data set [13] deals with P. aeruginosa ATCC 27953. In words: Inhibition of exopolysaccharide (EPS) production. The class given is cell-based, Pseudomonas aeruginosa. The note with it: means ± standard errors. On the procedure: The inhibition of exopolysaccharide production by P. aeruginosa ATCC 27953 using quinazolinone derivatives was assessed according to total carbohydrate measurement.
P. aeruginosa’s biofilm was grown in the presence or absence of compounds (19, 20). Cells were incubated for 1 h with an equal volume of 5% (v/v) phenol and 5 × volume of concentrated sulfuric acid containing 0.2% (w/v) hydrazine sulphate then centrifuged at 10,000 g for 10 min (Z 326 K, HERMLE Labortechnik GmbH, Wehingen, Germany). The optical density of the supernatant was measured at 490 nm and the reduction in EPS was calculated as follows: EPSquantification%=OD490ofcontrol-OD490oftest/OD490ofcontrol×100

In data set [14] the test system is Pseudomonas aeruginosa ATCC 27953. In words: Twitching motility assay. The format is cell-based. The note with it: starting from sub-MIC equal to half the MIC dose. As for the experimental part: 5 µL of overnight-grown bacteria were stab-inoculated into Luria Bertani (LB) soft or quasi-solid plates containing 0.3% agar mixed with different concentrations of compounds 19, 20 and further incubated overnight in an upright position. The visible detectable distance of corrugated trails of twitching zones, away from the inoculation center at the petri dish-agar interface, was measured afterwards. The results were recorded as the average of several diameters’ measurements. DMF was used as a negative control. The experiments were performed in triplicate and represented as the mean of three measurements.

Data set [15] concerns methicillin-resistant Staphylococcus aureus (MRSA). Further details: method as in PMID 32927027. The note with it: read-out: biofilm formation inhibition IC50; cited from earlier work.
In the next data set the test system is Candida albicans. Set-up: method as in doi:10.1002/slct.201803795. The note with it: read-out: anti-biofilm activity IC50; cited from earlier work.

In brackets after ≈: the same amount, converted by molar mass. Several values for one entry are separate records, joined by “and”; a condition that tells them apart may be missing. Equal entries are not always repeated.

The compound `O=c1c2ccccc2nc(CN2CCCC2)n1N=Cc1ccc([N+](=O)[O-])cc1` [Compound 20, 3-[(4-Nitrobenzylidene)amino]-2-(pyrrolidin-1-ylmethyl)quinazolin-4(3H)-one] had a melting point of 156 °C. The zone of inhibition at 20000 µg/mL in the data set on S. aureus ATCC 6538 [1] was 13 ± 0.11 mm. In addition, the zone of inhibition at 20000 µg/mL in the data set with B. subtilis ATCC 6633 [2] was determined as 10 ± 0.12 mm. Also, the zone of inhibition at 20000 µg/mL in the data set with B. cereus ATCC 6629 [3] worked out at 16 ± 0.07 mm. Moreover, in the data set with K. pneumoniae ATCC 13883 [4], the zone of inhibition at 20000 µg/mL turned out to be 16 ± 0.09 mm. The zone of inhibition at 20000 µg/mL in the data set on P. aeruginosa ATCC 27953 [5] stood at 21 ± 0.17 mm. The same compound showed an MIC in the data set with S. aureus ATCC 6538 [6] of 15000 ± 500 µg/mL (≈ 39700 µM). Also, the MIC against B. subtilis ATCC 6633 [7] (Bacillus subtilis, ATCC6633) was determined as 500 µg/mL (≈ 1320 µM). Further, in the data set with B. subtilis ATCC 6633 [7], the “MIC, B. subtilis ATCC 6633” value was 500 ± 0 µg/mL (≈ 1320 µM). For the same compound, the lowest concentration to inhibit growth with B. cereus ATCC 6629 [8] (Bacillus cereus, ATCC6629) (MIC) was 250 µg/mL (≈ 662 µM). Moreover, the “MIC, B. cereus ATCC 6629” value in the data set with B. cereus ATCC 6629 [8] stood at 250 ± 0 µg/mL (≈ 662 µM). The MIC in the data set on K. pneumoniae ATCC 13883 [9] (Klebsiella pneumoniae, ATCC13883) was found to be 500 µg/mL (≈ 1320 µM). The “MIC, K. pneumoniae ATCC 13883” value against K. pneumoniae ATCC 13883 [9] was determined as 500 ± 290 µg/mL (≈ 1320 µM). This compound also came in with an MIC against P. aeruginosa ATCC 27953 [10] (Pseudomonas aeruginosa, ATCC27953) of 250 µg/mL (≈ 662 µM). In the data set with P. aeruginosa ATCC 27953 [10], the “MIC, P. aeruginosa ATCC 27953” value was 250 ± 140 µg/mL (≈ 662 µM). In the data set “Cell viability MTT assay”, this compound returned a viability at 5 mg/ml of 88.1 ± 1.81%. Further, the IC50 with P. aeruginosa ATCC 27953 [11] is 6.86 µM and 2.59 µg/mL. The “effect on hydrophobicity index (CSH)” value with P. aeruginosa ATCC 27953 [12] was “reduced hydrophobicity index”. In addition, in the data set on P. aeruginosa ATCC 27953 [13] (1/4 MIC), the “% EPS inhibition” value is 21.51 ± 3.26%. In addition, the “% EPS inhibition” value in the data set on P. aeruginosa ATCC 27953 [13] (1 MIC) came to 47.84 ± 3.00%. For the same compound, the “% EPS inhibition” value in the data set with P. aeruginosa ATCC 27953 [13] (2 MIC) is recorded as 61.50 ± 2.83%. For the same compound, the “effect on twitching motility” value in data set [14] is “remarkably blocked”.
In the case of `Nc1nc(-c2cccc(Br)c2)cc(-c2nc3ccccc3c(=O)[nH]2)n1` [IV], the IC50 in [15] was 20.7 µM.
Turning to `COc1cc(OC)c(-c2nc3ccccc3c(=O)[nH]2)c(OC)c1` [V], the IC50 in the data set with Candida albicans is under 30 µM.
